Reference: ChEMBL document CHEMBL3507680, “University of Dundee, Gates Library screen for HepG2 cell viability”

Test: Human HepG2 cell viability assay in 384 well format
Type: toxicity, cell-based
Design: dose 125 nL, time 70.5 hour; cytotoxicity at 70.5 h: concentration not given beside the values
Conditions: HepG2 cells, read-out: Inhibition

Row | SMILES | cytotoxicity at 70.5 h
1 | CCn1cnnc1C1CCN(C(=O)c2cccc(N(C)C)c2)CC1 | 1.66%
2 | CC(C)NC(=O)NCC(Cc1ccc(F)cc1)C(N)=O (centres undefined) | 21.5%
3 | CC(C)S(=O)(=O)CC(=O)NCC(Cc1ccc(F)cc1)C(N)=O (centres undefined) | 1.75%
4 | Cc1cnc(CN(C)C2CCCN(c3cccnn3)C2)cn1 (centres undefined) | -0.507%
5 | CC(c1nc(C(C)(C)C)no1)N1CCN(C(=O)CN2CCOCC2)CC1 (centres undefined) | -6.71%
6 | Cc1ncc(CNC2CCc3nc(C(C)C)nn3C2)s1 (centres undefined) | 1.67%
7 | Cc1cc(CNC2CCc3nc(C(C)C)nn3C2)on1 (centres undefined) | -5.91%
8 | O=C(CCS(=O)(=O)C1CCCC1)N1CCCC1c1ccsc1 (centres undefined) | -4.99%
9 | Cc1ccc(NC(=O)CNc2cccc(C(N)=O)c2C)c(C)c1 | 33.2%
10 | COc1ccc(C2CCCN2Cc2nnnn2C2CC2)cc1OC (centres undefined) | -0.63%
11 | CN(Cc1ccncc1)C(=O)NC1CCS(=O)(=O)C1 (centres undefined) | -3.72%
12 | Cc1csc(CCNC(=O)Nc2cc(C(F)(F)F)c[nH]c2=O)n1 | -1.34%
13 | COCCOCCNC(=O)c1cccc(Cn2nc(C)cc2C)c1 | 34.2%
14 | Cc1nc(CNC(=O)Nc2cc(C(F)(F)F)c[nH]c2=O)cs1 | 1.62%
15 | CC(C)CN1CCC(NC(=O)c2ccc(Cl)cc2Cl)CC1 | -1.21%
16 | CCOCCNC(=O)c1cccc(Cn2nc(C)cc2C)c1 | -7.21%
17 | N#CCCCOc1cccnc1NC(=O)CCC1CCCC1 | -0.625%
18 | CCc1nnc2n1CCN(C(=O)c1ccc(C)c(S(N)(=O)=O)c1)C2 | -1.49%
19 | O=C(CN1CCCC1Cn1cncn1)Nc1nccs1 (centres undefined) | -7%
20 | COc1ccc(CNCCc2cc(F)cc3c2OCOC3)cc1OC | 2.03%
21 | CCN(CC)C(=O)CNC(=O)c1ccc(-c2ccsc2)nc1C | 59.9%
22 | Cc1cnn(CC2CN(CC(=O)Nc3cccnc3)CCO2)c1 (centres undefined) | -4.29%
23 | Cc1nc(CN2CCC(N(C)Cc3noc(C(C)C)n3)C2)oc1C (centres undefined) | 10.7%
24 | CCc1cnc(CN(C)C2CCN(CCNS(=O)(=O)CC)C2)o1 (centres undefined) | 2.11%

Row | SMILES | cytotoxicity at 70.5 h
25 | CCc1cnc(CN(C)C2CCN(CC3CCOCC3)C2)o1 (centres undefined) | 4.66%
26 | CCCc1n[nH]c(C2CN(C(=O)CCCn3ccnc3)CCO2)n1 (centres undefined) | -0.218%
27 | Fc1ccc(CNCCn2cccn2)c(F)c1 | 21.2%
28 | Cc1ccc(C(=O)N2CCCC2c2nnc3n2CCCCC3)s1 (centres undefined) | 8.9%
29 | Cc1cc(C(=O)N2CCCC2c2nnc3n2CCCCC3)on1 (centres undefined) | -2.64%
30 | CCCOc1cc(C)ccc1NC(=O)NCCNC(=O)C(C)C | 25.7%
31 | Cc1nn(C)c(C)c1CCC(=O)N(C)Cc1ccc(C#N)cc1 | 1.66%
32 | O=C(c1ccc(Cl)o1)N1CCCC1c1nnc2n1CCCCC2 (centres undefined) | 1.9%
33 | Cc1ncncc1C(=O)NCCN1CCC(C)CC1 | 5.52%
34 | Cc1nn(C)c(N2CCOCC2)c1CNC(C(N)=O)c1ccccc1 (centres undefined) | 4.26%
35 | CS(=O)(=O)N1CCC(Oc2ccc(C#N)cc2)CC1 | 7.19%
36 | CN(C)C(=O)c1cnc(-c2ccc3c(c2)OCO3)s1 | 6.77%
37 | CC(C)N(CC(N)=O)C(=O)c1cnc(-c2ccc3c(c2)OCO3)s1 | 5.92%
38 | CC(C)c1nnc2n1CC(CNCc1nc3ccccc3s1)CC2 (centres undefined) | 21.9%
39 | COc1ccc(CN(C)C(=O)Cc2c(C)nn(C)c2C)cc1F | 2.24%
40 | COc1ccc(C2CCCCCN2S(C)(=O)=O)cc1 (centres undefined) | 1.84%
41 | CCS(=O)(=O)CCN1CCC(N(C)Cc2ncc(C)o2)C1 (centres undefined) | 0.306%
42 | CCc1n[nH]c(C2CN(C(=O)CCCn3cccn3)CCO2)n1 (centres undefined) | 2.59%
43 | Cc1ccc(NCCCNC(=O)NCC2CCS(=O)(=O)C2)nc1 (centres undefined) | -17.4%
44 | Cc1ccc(-c2nnc(CN3CC(n4cc(C)cn4)C3)o2)cc1 | -13.9%
45 | NC(=O)c1cccc(CNC/C=C/c2ccccc2)c1 | 12.6%
46 | COC(=O)NCC(=O)NC(c1ccc(Cl)cc1)C(F)(F)F (centres undefined) | -8.75%
47 | Cc1cc(-c2noc(C3CCS(=O)(=O)C3)n2)ccc1F (centres undefined) | -11%
48 | NC(=O)C1CN(C(=O)NCC2(c3ccc(F)cc3)CCC2)CCO1 (centres undefined) | 1.35%

Row | SMILES | cytotoxicity at 70.5 h
49 | O=C(NCC1(c2ccc(F)cc2)CC1)N1CCC2(CCOC2)C1 (centres undefined) | 13.9%
50 | CN(CCNS(C)(=O)=O)CC(c1cccs1)N1CCOCC1 (centres undefined) | -8.66%
51 | CC(C)N(CCNCc1ccc(C#N)cc1)C1CC1 | 17.7%
52 | O=C(NCC1(c2ccc(F)cc2)CCC1)N1CCC2(C1)OCCO2 | -8.6%
53 | CCc1sc(-c2nnc(CNC(C)Cn3cc(C)cn3)o2)cc1C (centres undefined) | 5.1%
54 | CCc1sc(-c2nnc(CNC(C)Cn3cccn3)o2)cc1C (centres undefined) | -11.3%
55 | Cc1cnn(C2CN(Cc3nnc(Cc4ccccc4)o3)C2)c1 | -13.1%
56 | CN(C)C(=O)CNC(CC(F)(F)F)c1ccc(F)cc1 (centres undefined) | 7.18%
57 | COCC1CCCN(C(=O)c2ccccc2NCc2cccnc2)C1 (centres undefined) | 3.32%
58 | OCCCN(CCc1cccc(F)c1)C1CC1 | -4.09%
59 | CN(C)c1nc(N)nc(CN2CCCC2c2cccs2)n1 (centres undefined) | 0.514%
60 | NC(=O)NC(=O)CCSCc1coc(-c2ccc(F)cc2)n1 | -3.5%
61 | Cn1c2ncccc2c(=O)n1CC(=O)Nc1ccc(F)c(F)c1 | -3.2%
62 | Cc1cccc(-n2cnc(Cl)c2C(=O)O)c1 | -16.5%
63 | COCCOc1ccc(CNc2nc3ccccc3nc2N)cn1 | -3.46%
64 | O=C(O)c1ccnc(SCC(F)(F)F)c1 | -10.8%
65 | Cn1c2ncccc2c(=O)n1CC(=O)NCCc1c(F)cccc1F | -7.19%
66 | O=C(NC1CCCN(c2ccccc2Cl)C1)c1ccc(=O)[nH]n1 (centres undefined) | -12.6%
67 | Cc1nnc(SC2CCN(c3sccc3C#N)C2=O)[nH]1 (centres undefined) | -9.17%
68 | Cc1cc(CCC(=O)NCc2ncc[nH]2)ccc1Br | -0.138%
69 | Cc1nnc(SC2CCN(c3sccc3C#N)C2=O)s1 (centres undefined) | 24.5%
70 | Cc1cc(CCC(=O)NCc2nccn2C)ccc1Br | 1.59%
71 | CN1CCN(C(=O)c2cc[nH]c(=O)c2)Cc2ccccc21 | 1.93%
72 | N#Cc1ccsc1N1CCC(Sc2ccncc2)C1=O (centres undefined) | -7.07%

Row | SMILES | cytotoxicity at 70.5 h
73 | Cc1cc(=O)[nH]cc1C(=O)N1Cc2ccccc2N(C)CC1C (centres undefined) | 26%
74 | CC1(C)CN=C(N2CCN(CC3CCOC3)CC2)S1 (centres undefined) | -12.3%
75 | Cc1nn(C)c(C)c1C(=O)N1CCN(c2ccncc2Cl)CC1 | -6.89%
76 | CC(C)(CO)CCCNC(=O)NC1(C)Cc2ccccc2C1 | -0.326%
77 | COC1CCN(C(=O)c2ccccc2NCc2cccnc2)CC1 | -2.63%
78 | COc1ccc(CC(=O)N(C)c2cccnc2N(C)C)c(Cl)c1 | -1.15%
79 | CC(C)(C)n1cc(CNc2ccc(CNS(C)(=O)=O)cc2)cn1 | -8.49%
80 | CN1CCCN(C(=O)c2cccn2-c2ccc3c(c2)OCCO3)CC1 | -5.24%
81 | O=C(c1cccn1-c1ccc2c(c1)OCCO2)N1CCCC1 | -11.9%
82 | COC(=O)C1CCCN1C(=O)c1ccc(-n2nc(C)cc2C)cc1 (centres undefined) | -4.44%
83 | COc1ccc(N(Cc2ccco2)C(=O)C2CCOC2)cc1F (centres undefined) | -6.7%
84 | CCOC(=O)C1CSCCN1C(=O)c1ccc(-n2nc(C)cc2C)cc1 (centres undefined) | 3.47%
85 | COc1c(CNC(C)C(=O)NC2CCCC2)c(C)nn1C (centres undefined) | -6.91%
86 | O=C(Nc1nnn[nH]1)c1ccc(I)c(F)c1 | 4.13%
87 | CC(=O)N1CCCN(C(=O)NC(C)c2csc3ccccc23)CC1 (centres undefined) | -6.35%
88 | Cc1cccc(NC(=O)N2CCN(Cc3nnc(C(C)C)o3)CC2)c1 | -7.45%
89 | CCCN1CCC(Nc2nc(C)ns2)CC1 | -8.37%
90 | C=C(C)CN1CCC(Nc2nc(C)ns2)CC1 | -0.501%
91 | Cc1c(Cl)ccc2ccc(NC(CO)CO)nc12 | 6.75%
92 | Cc1ccc(Cl)c2ccc(NC(CO)CO)nc12 | 0.998%
93 | Cc1nnc2ccc(C(=O)N3CCSC(C)(C)C3)cn12 | 11.4%
94 | Cc1nnc(CN(C)Cc2nc3c(s2)CCCC3)o1 | -5.09%
95 | CN(Cc1nnc(-c2cccs2)o1)Cc1nc2c(s1)CCCC2 | -14.1%
96 | CCOCC(=O)N(Cc1ccco1)c1ccc(OC)c(F)c1 | -5.82%

Row | SMILES | cytotoxicity at 70.5 h
97 | CN1CCN(CC(=O)NCc2ccco2)Cc2ccccc21 | -13.5%
98 | Fc1ccc(-c2nnc(CNC3CCc4ncnn4C3)o2)cc1 (centres undefined) | -12.1%
99 | COC(=O)N1CCCC(C(=O)N(C)C)C1 (centres undefined) | -9.72%
100 | Cc1nc(CN2CCCC(N(C)c3ccc(C#N)cn3)C2)no1 (centres undefined) | -2.54%
101 | NC(=O)NC(=O)CNc1cccc(C(=O)c2ccccc2)c1 | 13.6%
102 | CCNC(=O)NC(=O)CNc1cccc(C(=O)c2ccccc2)c1 | -12.7%
103 | CN(C)C(=O)C1CCN(C(=O)c2c[nH]c3cc(Cl)ccc23)CC1 | -8.29%
104 | CC(C)(C)C(=O)NCC(=O)NCCc1nc(C(F)(F)F)cs1 | -9.84%
105 | CN(Cc1ccccc1F)C(=O)Cn1cc(NC(=O)C(C)(C)C)cn1 | 10.7%
106 | O=C(Nc1ccc(-c2nnc[nH]2)cc1)C1CCN1Cc1ccccc1 (centres undefined) | 14.7%
107 | CCS(=O)(=O)NCC(=O)Nc1cc(CC(C)(C)C)n[nH]1 | 0.46%
108 | O=C(NC1CCN(c2ncccc2F)C1)c1cccc(-n2ccnn2)c1 (centres undefined) | -6.27%
109 | CC(C)(C)c1nc(CNC(=O)N2CCc3ccccc3C2CO)no1 (centres undefined) | -2.31%
110 | CCc1nc(CNc2ccc(F)cc2I)no1 | 2.16%
111 | Cc1cc(Cl)ccc1NCc1ccc(C(=O)N(C)C)[nH]1 | -4.01%
112 | Cc1cc(Br)ccc1NCc1ccc(C(=O)N(C)C)[nH]1 | 18.2%
113 | CC(c1ccccc1)N(C)C(=O)Cn1cc(NC(=O)C(C)(C)C)cn1 (centres undefined) | -3.77%
114 | CC(C)N(C)CC(=O)NCCc1nc(C(F)(F)F)cs1 | -5.26%
115 | Cc1cnn(CC(C)Nc2nc(C)cc(N(C)C)n2)c1 (centres undefined) | -6.1%
116 | Cc1csc(CCCNC(C)CC(=O)Nc2cccc(C)c2C)n1 (centres undefined) | -4.67%
117 | Cc1noc(CCCNC(=O)N2CCc3ccccc3C2CO)n1 (centres undefined) | 14.9%
118 | CCc1cnc(CCNC(C)CC(=O)Nc2cccc(C)c2C)s1 (centres undefined) | -5.98%
119 | CCC(C)(N)c1nc(=O)c(C(C)C)c(C)[nH]1 (centres undefined) | -5.63%
